Test results taken from US5064637A, “Substituted sulfonamide derivatives which inhibit allergic reactions” (Board of Regents, The University of Texas System, priority 1989, dated 1991).

Tests used:
IgG to SMX [1] = experiment: Example 1: inhibition of IgG binding, ELISA, serum preincubated overnight with inhibitor; set-up: species or system human; settings: for Reduction in percent binding: 20 microliter of 10 mg/ml inhibitor to 180 microliter serum, overnight; for inhibition of IgG binding (in words): serum dilutions 1:40, 1:80, 1:160
Description: This experiment was performed to determine the amount of binding inhibition achieved with various inhibitory agents. […] The experiments were performed in 96-well microtiter plates having 8 rows
designated A-H, and 12 columns designated 1-12. Each well of the microtiter plate was given a designation in accordance with the above grid system. All samples were diluted in phosphate buffered saline (PBS) to the designated dilution factor. The serum dilution levels used in this study were 1:40, 1:80 and 1:160, v/v.
A sample of each serum dilution was preincubated overnight with a IgG binding inhibitor selected from Table 2. A 2o-lambda (mioroliter) volume from a lo mg/ml solution of the selected inhibitor was added to a 180 lambda volume of the particular serum sample.
One hundred milligrams (I00 mg) of each of the listed compounds was weighed out and added to a 10 ml volume of 100% PBS so as to achieve a final concentration of 10 mg/ml by weight of the inhibitor.
In accordance with the aforedescribed system, the wells at Row A, columns 1 and 2 of the microtiter plate, received 100 microliters of phosphate buffered saline as a blank. Row A, columns 3 and 4, received normal serum diluted 1:40 in PBS, and served as a negative control. Row A, columns 5 and 6 received -00 microliters of a positive serum (i.e., serum sample positive for IgG to SMX) diluted -:40. Row A, columns 7 and 8, received positive serum diluted at 1:80. Similarly, Row A, columns 9 and 10, received 100 microliters positive serum diluted at 1:160. […] The completed microtiter plate consisted of the following sample distribution (see Table 3).
The present invention was tested using a modified ELISA assay. The specific ELISA used employs the following reagents, standards and antibodies.

IgG to SMX [2] = experiment: Example 3: inhibition studies, ELISA, serum preincubated overnight with inhibitor; type: binding, human; settings: serum 1:40
Description: This study was conducted to confirm results on binding inhibition obtained in Example 2. Two positive serums (i.e., positive for IgG to SMX) were employed, including the positive serum used in Examples 1 and 2. PBS (phosphate buffered saline) and a normal serum were also tested in this study.
All serum used were at a 1:40 final dilution. Serum was diluted in PBS.
Several binding inhibitors at various dilutions were used. The particular inhibitors and the dilutions thereof examined appear in Table 8, along with their numerical designations.
Positive serum samples were first preincubated overnight with 50 microliter of the numerically designated inhibitors (10 mg/ml inhibitor solution - See Example I).
A standard ELISA assay was conducted using a 96 well microtiter plate as described for Example I. Row A, wells 3 and 4, received normal serum diluted 1:40 in PBS. Other wells received 10 microliter of positive serum A (Row A, well 5 through Row F, well 6) or positive serum B (Row F, well 7 through Row H, well 6) at a 1:40 dilution in PBS.
That percent binding inhibition obtained for each sample appears at Table 10.

Ig to SMX = experiment: Hapten inhibition of Ig binding to SMX-HSA (RAST for IgE, ELISA for IgG, IgA, IgM); set-up: species or system human; settings: free inhibitor, specificity check
[3] = test system: IgE to SM (N^4 -SMX determinants); settings: cited from earlier work
IgG to SMX [4] = experiment: Example 2: hapten inhibition of IgG binding, ELISA, no preincubation; set-up: species or system human; settings: final serum dilution 1:80
Description: The assay was set up using a 96 well microtiter plate. None of the serum samples were preincubated with inhibitor. Serum used was positive (+) for IgG to SMX, and was used at a final dilution of […] for all wells.
A variety of binding inhibitors were employed at varying concentrations.
A 50 microliter volume of each numerically designated inhibitor was added each well of the plate. A 50 microliter volume of serum (1:40 dilution) positive to IgG to SMX was then added to each well. The final dilution of serum in each was then 1:80.
The microtiter plate was then shaken slightly to mix the contents of each well and then the standard ELISA assay was performed. The plate was then allowed to incubate for 2 hours at room temperature. The plates were then washed and the OD readings taken for each well.
Percent inhibition was then calculated for each sample on the basis of decrease in OD.

With `Cc1cc(NS(=O)(=O)c2ccc(N=Nc3cc(CC(N)C(=O)O)ccc3O)cc2)no1` (centres unmarked) [Inhibitor 3] the “Reduction in percent binding” value (IgG to SMX [1]; serum dilution 1:40) was 28%, the “Reduction in percent binding” value (IgG to SMX [1]; serum dilution 1:80) was 50% and the “Reduction in percent binding” value (IgG to SMX [1]; serum dilution 1:160) was 42%. For the same molecule, the “% Reduction in OD” value (IgG to SMX [2]; inhibitor 0.1 mg/ml (Table 8)) was 32%.
With `CC1(C)SC(C(NC(=O)Cc2ccccc2)C(=O)NCc2ccccc2)NC1C(=O)O` (centres unmarked) [Inhibitor 28] the “% Reduction in OD” value (IgG to SMX [2]; inhibitor 10 mg/ml (Table 8), serum A or B not stated) was 0%.
For `Cc1cc(NS(=O)(=O)c2ccc(N)cc2)no1` [SMX, Sulfamethoxazole, reference compound], the “inhibition of antibody binding to SMX-HSA (in words)” value (“inhibition of antibody binding” for short) (Ig to SMX) is listed as “also inhibited binding, but were usually less efficient” and the “inhibition of IgE binding of one highly reactive serum (in words)” value (shortened to “inhibition of IgE binding … (in words)”) [3] is listed as “significantly inhibited”.
For `COC(=O)C(N)Cc1ccc(O)c(N=Nc2ccc(S(=O)(=O)Nc3cc(C)on3)cc2)c1` (centres unmarked) [SMX-Tyrosine Methyl ester], the “inhibition of IgG binding (in words)” value (IgG to SMX [1]) was “considerable inhibition at the 1:40 serum dilution only” and the “% Inhibition” value (IgG to SMX [4]; inhibitor 10 mg/ml) was 32%.
In the case of `Cc1cc(NS(=O)(=O)c2ccc(N=Nc3cc(CC(N)C(=O)O)ccc3O)cc2)no1` (centres unmarked) [SMX-Tyrosine], the “inhibition of IgG binding (in words)” value (IgG to SMX [1]) is reported as “significantly inhibit binding”, the “% Inhibition” value (IgG to SMX [4]; inhibitor 0.1 mg/ml) is reported as 51% and the “% Inhibition” value (IgG to SMX [4]; inhibitor 0.3 mg/ml) is reported as 54%. For the same molecule, the “% Inhibition” value (IgG to SMX [4]; inhibitor 1 mg/ml) was 57%, the “% Inhibition” value (IgG to SMX [4]; inhibitor 3 mg/ml) was 70% and the “% Inhibition” value (IgG to SMX [4]; inhibitor 10 mg/ml) was 59%.
In the case of `COc1cc(Cc2cnc(N)nc2N)cc(OC)c1OC` [Trimethoprim], the “inhibition of IgE binding … (in words)” value [3] is given as “not”.
In the case of `Cc1ccnc(NS(=O)(=O)c2ccc(N)cc2)n1` [sulfamerazine], the “inhibition of IgE binding … (in words)” value [3] is listed as “significantly inhibited”.
For `Cc1nnc(NS(=O)(=O)c2ccc(N)cc2)s1` [sulfamethizole], the “inhibition of IgE binding … (in words)” value [3] is given as “significantly inhibited”.
In the case of `Nc1ccc(S(=O)(=O)O)cc1` [sulfanilic acid], the “inhibition of IgE binding … (in words)” value [3] is listed as “not”.
For “N^4 -sulfamethoxazoyl-L-histidine [SMX-Histidine]”, the “inhibition of antibody binding” value (Ig to SMX; listed as N^4 -sulfamethoxazoyl histidine) was “among the most active”, the “inhibition of antibody binding” value (Ig to SMX; listed as SMX-HD) was “inhibition of binding” and the “inhibition of IgG binding (in words)” value (IgG to SMX [1]) was “significant reduction in binding at the 1:80 and I:160 serum dilution, but none at the 1:40 dilution”. For the same molecule, the “% Inhibition” value (IgG to SMX [4]; inhibitor 10 mg/ml) was 54%.
With “N^4 -sulfamethoxazoyl-poly-L-tyrosine [SMX-poly-L-tyrosine]” the “inhibition of IgG binding (in words)” value (IgG to SMX [1]) was “significantly inhibit binding”, the “% Inhibition” value (IgG to SMX [4]; inhibitor 0.1 mg/ml) was 0% and the “% Inhibition” value (IgG to SMX [4]; inhibitor 0.3 mg/ml) was 2%. For the same molecule, the “% Inhibition” value (IgG to SMX [4]; inhibitor 1 mg/ml) was 24%, the “% Inhibition” value (IgG to SMX [4]; inhibitor 3 mg/ml) was 46% and the “% Inhibition” value (IgG to SMX [4]; inhibitor 10 mg/ml) was 50%.
With SMX-Imidazole the “% Inhibition” value (IgG to SMX [4]; inhibitor 10 mg/ml) was 61%.
In the case of SMX-Lysine, the “% Inhibition” value (IgG to SMX [4]; inhibitor 10 mg/ml) is reported as 51%.
For SMX-Tryptophan, the “% Inhibition” value (IgG to SMX [4]; inhibitor 10 mg/ml) was 52%.
In the case of Sulfamerazine-Histidine, the “% Inhibition” value (IgG to SMX [4]; inhibitor 10 mg/ml) is reported as 35%.
For “Sulfamethizole-histidine [Sulfamethazole-histidine]”, the “% Inhibition” value (IgG to SMX [4]; inhibitor 10 mg/ml) was 7%.
With Sulfanilic-Histidine the “% Inhibition” value (IgG to SMX [4]; inhibitor 10 mg/ml) was 60%.
